Data as given in US12533362B2, “Methods for treating diseases associated with ciliopathies” (ALEXION PHARMACEUTICALS, INC., priority 2017, dated 2026).

Tests used:
zebrafish NPHP4 MO = experiment: zebrafish NPHP4 morpholino (MO) model; assay type: in vivo
Description: Briefly, wild-type Tg(wt1b:GFP) transgenic zebrafish embryos were injected with morpholino (e.g., nphp4 ATG MO) at one-cell stage. At 8 hours post-fertilization (hpf), injected embryos were treated with drug or vehicle in PTU-egg water (1 mL in 12-well plates). At 24 hpf, drug treatment was renewed, and pronase was added at 36 hpf for chorion removal.

[1] = test system: control normal epithelial cells; experiment: automated cilia-based ciliogenesis assay in control normal epithelial cells; assay type: cell-based, human
Source text: (§1) To identify compounds for treating diseases associated with ciliopathies such as, for example, NPHP, NPHP patient-derived cells were obtained and cell lines were established. Briefly, peeled renal epithelial cells, which are mostly proximal tubule cells (tbc) recovered from urine of NPHP1-deficient patients, were immortalized by retroviral gene transfer of SV40 T antigen. Cells were fixed and fluorescence-labeled with Hoechst (for nuclei staining), anti-γ-tubulin antibody (for basal bodies staining), and anti-ARL13B antibody (for cilia staining) for detection using immunofluorescence microscopy.
(§2) Briefly, NPHP patient-derived cells and control cells were cultured in complete media, at 39C (non-permissive temperature for SV40 expression), followed by automatic cilia analysis using immunofluorescence microscopy to measure ciliogenesis, e.g., in terms of % cilia. A spinning disk platform may be used for drug screening (FIG. 5, A-J) and ciliogenesis analysis of G3 multi-OMICs dataset (FIG. 29, A-E).
The cilia-based assay described above may be used to identify compounds that restore ciliogenesis. […] Automated random acquisition of 35 images per well may be performed, for example. Each image may have z-stack of 10 images taken at <1 μm intervals. Consecutive imaging of nucleus (Hoechst at 461 nm), basal body (γ-tubulin at 555 nm) and cilia (ARL13b at 647 nm) may be obtained.

EP2 = EP2 (Mus musculus, UniProt Q62053); settings: cited from earlier work
Sequence of EP2 (Q62053 whole entry): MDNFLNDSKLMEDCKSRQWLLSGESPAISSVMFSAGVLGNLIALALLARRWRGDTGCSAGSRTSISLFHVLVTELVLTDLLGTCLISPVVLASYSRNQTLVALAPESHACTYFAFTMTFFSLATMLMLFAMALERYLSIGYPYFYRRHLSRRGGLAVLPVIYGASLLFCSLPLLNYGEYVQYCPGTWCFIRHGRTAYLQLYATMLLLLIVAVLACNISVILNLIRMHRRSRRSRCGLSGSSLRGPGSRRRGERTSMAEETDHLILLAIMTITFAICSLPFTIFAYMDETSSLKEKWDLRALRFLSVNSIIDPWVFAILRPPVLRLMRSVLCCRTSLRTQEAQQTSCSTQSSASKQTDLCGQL

EP4 = EP4 (Mus musculus, UniProt P32240); settings: cited from earlier work
Sequence of EP4 (P32240 whole entry): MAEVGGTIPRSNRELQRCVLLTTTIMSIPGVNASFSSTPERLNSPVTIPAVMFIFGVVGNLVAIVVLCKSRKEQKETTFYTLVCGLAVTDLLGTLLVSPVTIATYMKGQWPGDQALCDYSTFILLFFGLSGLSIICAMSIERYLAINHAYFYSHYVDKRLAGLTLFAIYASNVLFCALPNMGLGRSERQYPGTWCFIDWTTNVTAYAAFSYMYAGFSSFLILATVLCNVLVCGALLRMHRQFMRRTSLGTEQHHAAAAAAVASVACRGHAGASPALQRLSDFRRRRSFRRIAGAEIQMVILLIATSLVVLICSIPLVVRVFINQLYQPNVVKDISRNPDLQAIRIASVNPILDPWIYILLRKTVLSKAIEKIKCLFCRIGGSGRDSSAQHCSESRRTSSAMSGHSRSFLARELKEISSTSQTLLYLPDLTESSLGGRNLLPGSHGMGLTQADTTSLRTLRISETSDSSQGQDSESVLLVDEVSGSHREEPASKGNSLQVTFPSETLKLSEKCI

EP3 = biological target: T1, EP3 (Mus musculus, UniProt P30557); settings: cited from earlier work
T1 sequence (P30557 1-365): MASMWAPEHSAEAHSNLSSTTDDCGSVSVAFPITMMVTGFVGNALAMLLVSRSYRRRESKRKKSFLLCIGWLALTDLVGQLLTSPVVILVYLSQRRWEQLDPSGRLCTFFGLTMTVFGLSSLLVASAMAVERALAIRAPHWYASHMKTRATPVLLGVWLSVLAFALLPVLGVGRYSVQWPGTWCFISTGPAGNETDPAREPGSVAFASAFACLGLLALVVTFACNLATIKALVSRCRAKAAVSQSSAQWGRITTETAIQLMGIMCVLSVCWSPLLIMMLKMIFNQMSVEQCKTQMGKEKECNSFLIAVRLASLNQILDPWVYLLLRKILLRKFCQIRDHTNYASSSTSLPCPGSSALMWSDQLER

[2] = test system: NPHP patient-derived cells; experiment: automated cilia-based ciliogenesis assay in NPHP patient-derived cells; assay type: cell-based, human
Source text: as §1, §2
The cilia-based assay described above may be used to identify compounds that restore ciliogenesis. […] Automated random acquisition of 35 images per well may be performed, for example. Each image may have z-stack of 10 images taken at <1 μm intervals.

URECs = experiment: microarray differential expression analysis of URECs; assay type: cell-based, human; settings: for top regulated genes signaling pathway, microarray: DMSO vs 0.2 μM, 2 μM and 10 μM
Description: Microarray analysis was performed to identify expressed genes responsible for the alprostadil-mediated restoration of ciliogenesis.

EP1 = biological target: T2, EP1 (Mus musculus, UniProt P35375); settings: cited from earlier work
T2 sequence (P35375 1-405): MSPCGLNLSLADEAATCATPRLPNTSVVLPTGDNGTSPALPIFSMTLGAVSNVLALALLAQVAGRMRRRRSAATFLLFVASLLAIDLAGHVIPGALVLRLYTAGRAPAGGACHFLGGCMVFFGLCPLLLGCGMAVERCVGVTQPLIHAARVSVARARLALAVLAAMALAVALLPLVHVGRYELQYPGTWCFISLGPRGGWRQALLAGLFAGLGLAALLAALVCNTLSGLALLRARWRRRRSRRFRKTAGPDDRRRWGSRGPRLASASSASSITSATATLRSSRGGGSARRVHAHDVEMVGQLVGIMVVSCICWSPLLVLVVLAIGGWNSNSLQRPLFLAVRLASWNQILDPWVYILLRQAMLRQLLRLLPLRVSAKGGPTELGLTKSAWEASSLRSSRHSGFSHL

[3] = meta-analysis, multiple NPHP patient-derived cell lines

In the case of `CCCCC[C@H](O)/C=C/[C@H]1[C@H](O)CC(=O)[C@@H]1CCCCCCC(=O)O` [alprostadil, prostaglandin E1], the “dorsal curvature (automated quantified parameter)” value (zebrafish NPHP4 MO; 0.5 μM and 5 μM vs DMSO) is reported as “did not significantly affect dorsal curvature”, the “body axis curvature (normal, class I, class II, class III)” value (zebrafish NPHP4 MO; 0.5 μM and 5 μM vs DMSO, p>0.05 Fischer's exact test) is reported as “did not significantly affect body axis curvature” and the “percentage of severe pronephric cysts” value (zebrafish NPHP4 MO; 0.5 μM vs DMSO, p<0.05 Fischer's exact test) is reported as “significantly reduced the percentage of severe pronephric cysts”. For the same compound, the “percentage of severe pronephric cysts” value (zebrafish NPHP4 MO; 5 μM vs DMSO) was “significantly reduced the percentage of severe pronephric cysts”, the “ciliogenesis, meta-analysis” value ([1]; 2 μM vs DMSO 0.04%, CTRL cells, FIG. 8A) was “does not significantly affect ciliogenesis” and the ciliogenesis rate ([1]; 2 μM vs DMSO, normal control cells, FIG. 11B) was “no significant effect on ciliogenesis rate”. For the same compound, the IC50 (EP2) was 10 nM, the IC50 (EP4) was 2.1 nM and the IC50 (EP3) was 1.1 nM. The ciliogenesis rate ([2]; 2 μM vs DMSO, NPHP1(del) cell lines PT1, 1-03-P, 1-06-P1, 1-06-P2, 1-09-P, 1-10-P, 1-12-P, FIG. 11B) was “significantly increases ciliogenesis rate”, the “% ciliated cells, dose response” value ([2]; alprostadil titration from 1 nM to 2 μM and from 100 pM to 2 μM, FIG. 7) was “significantly increases % ciliated cells in a dose-dependent manner” and the “effect on ciliogenesis (percentage of ciliated cells) as compared with DMSO” value ([2]; drug screening, various tested concentrations, FIG. 5 / FIG. 6) was “significantly restored ciliogenesis”. For the same compound, the “% ciliated cells, multi-omics phenotypic analysis” value ([2]; five independent experiments, FIGS. 26A-26E) was “partially restores ciliogenesis”, the “increase in the effect on ciliogenesis in NPHP patient-derived cells versus control (DMSO 0.04%)” value ([2]; meta-analysis, FIG. 8C) was “about two-fold” and the “linear regression pooled slope value of effect on ciliogenesis” value [2, 3] was 1.414. The “linear regression range of slope values of effect on ciliogenesis” value [2, 3] was 1.333 to 1.506, the “ciliogenesis, meta-analysis” value ([2]; vs DMSO 0.04%, PT1 cells, FIG. 8B) was “significantly increases ciliogenesis” and the “top regulated genes signaling pathway, microarray” value (URECs; Qiazol extraction) was “down-regulation of cell adhesion and extracellular matrix, and up-regulation of interferon signaling”. For the same compound, the “top regulated genes signaling pathway, microarray” value (URECs; RLT extraction) was “down-regulation of cell adhesion and extracellular matrix”, the “alteration in gene expression in NPHP patient-derived cells compared to control cells” value (URECs; pathway analysis crossing microarray data with RNAseq of control vs patient) was “could reverse alteration in gene expression” and the IC50 (EP1) was 36 nM.
